Assay results from US20240122179A1, “AUXINIC HERBICIDES AND METHODS OF USE THEREOF” (CORTEVA AGRISCIENCE LLC, priority 2021, published 2024).
Like-named read-outs stand apart in the source and are kept apart here.

Key:
Experiment in all cases: Postemergence herbicide evaluation, percent reduction in plant size vs untreated control, 21 days after treatment
[1] = tested on: Ambrosia artemisiifolia (AMBEL); assay type: in vivo, Ambrosia artemisiifolia (common ragweed); conditions: post-emergence, 504 h, AMBEL, postemergence, read-out: Control/Injury; for pest or weed control at 140 g/ha: rate 140 g ae/ha; for pest or weed control at 280 g/ha: rate 280 g ae/ha
How it was run: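 Greenhouse-grown plants (25–28 °C, 16 h light) were sprayed postemergence at the 2–8 leaf stage with 140 or 280 g ae/ha in acetone/DMSO-based spray solution with crop oil and surfactant, at 187 L/ha by track sprayer. There were 3–4 replicates. Plant size was measured 21 days after treatment versus untreated plants.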

[2] = tested on: Conyza canadensis (L.) (ERICA); assay type: in vivo, Conyza canadensis (L.) (Horseweed); conditions: Erigeron canadensis, post-emergence, 504 h, ERICA, postemergence, read-out: Control/Injury; for pest or weed control at 140 g/ha: rate 140 g ae/ha; for pest or weed control at 280 g/ha: rate 280 g ae/ha
How it was run: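 Horseshoe-weed (horseweed) seedlings at 2 to 8 leaf stage in greenhouse (25-28° C, 16 h light), sprayed postemergence at 140 or 280 g ae/ha in acetone/DMSO-based spray solution, 187 L/ha track-sprayer. Randomized complete block, 3-4 replicates; plant size measured 21 days after treatment as percent reduction vs untreated controls.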

Kochia scoparia (KCHSC) = assay type: in vivo; conditions: Bassia scoparia, post-emergence, 504 h, KCHSC, postemergence, percent reduction vs untreated, 21 days after treatment, read-out: Control/Injury; for pest or weed control at 140 g/ha: rate 140 g ae/ha; for pest or weed control at 280 g/ha: rate 280 g ae/ha
How it was run: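 Greenhouse-grown plants (25-28 °C, 16 h light) at the 2 to 8 leaf stage were track-sprayed postemergence at 140 or 280 g ae/ha in acetone/DMSO-based spray solution with crop oil and surfactant, at 187 L/ha, in 3-4 randomized replicates.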

[3] = tested on: Amaranthus palmeri (AMAPA); assay type: in vivo, Amaranthus palmeri (Palmer amaranth); conditions: post-emergence, 504 h, postemergence, read-out: Control/Injury; for pest or weed control at 140 g/ha: rate 140 g ae/ha; for pest or weed control at 280 g/ha: rate 280 g ae/ha
How it was run: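 Greenhouse-grown Palmer amaranth (25 to 28° C, 16 h light) sprayed postemergence at the 2 to 8 leaf stage with 140 or 280 g ae/ha in acetone/DMSO-based solution containing crop oil concentrate, 187 L/ha by track sprayer. Three to four replicates; plant size measured 21 days after treatment as percent reduction versus untreated control.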

Amaranthus rudis (AMATA) = assay type: in vivo, Amaranthus rudis (tall water hemp); conditions: Amaranthus tuberculatus, post-emergence, 504 h, AMATA, postemergence, read-out: Control/Injury; for pest or weed control at 140 g/ha: rate 140 g ae/ha; for pest or weed control at 280 g/ha: rate 280 g ae/ha
How it was run: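 Greenhouse-grown tall waterhemp (25-28° C, 16 h light) at the 2-8 leaf stage, treated by track sprayer at 187 L/ha with compound at 140 or 280 g ae/ha in acetone/DMSO-based spray solution with crop oil and surfactant. 3-4 replicates per treatment, randomized complete block; plant size reduction versus untreated control measured 21 days after treatment.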

[4] = percent reduction vs untreated, 21 days after treatment
[5] = R-AMAPA, percent reduction vs untreated control, 21 days after treatment

Row | Compound | pest or weed control at 140 g/ha [1] [%] | pest or weed control at 280 g/ha [1] [%] | pest or weed control at 140 g/ha [2, 4] [%] | pest or weed control at 280 g/ha [2, 4] [%] | pest or weed control at 140 g/ha (Kochia scoparia (KCHSC)) [%] | pest or weed control at 280 g/ha (Kochia scoparia (KCHSC)) [%] | pest or weed control at 140 g/ha ([3]; AMAPA) [%] | pest or weed control at 280 g/ha ([3]; AMAPA) [%] | pest or weed control at 140 g/ha (Amaranthus rudis (AMATA)) [%] | pest or weed control at 280 g/ha (Amaranthus rudis (AMATA)) [%] | pest or weed control at 140 g/ha [2] [%] | pest or weed control at 280 g/ha [2] [%] | pest or weed control at 140 g/ha [3, 5] [%] | pest or weed control at 280 g/ha [3, 5] [%]
1 | CCCCCCNC(=O)c1c(Cl)ccc(Cl)c1OC [Compound A-128] | 3 | 5 | 3 | 5 | 0 | 0 | 3 | 5 | 3 | 8 | – | – | – | –
2 | COc1c(Cl)ccc(Cl)c1C(=O)n1oc2ccccc2c1=O [Compound A-130] | 40 | 48 | – | – | 45 | 45 | 18 | 20 | 20 | 28 | 13 | 28 | – | –
3 | COc1c(Cl)ccc(Cl)c1C(=O)NNc1ccccc1 [Compound A-131] | 48 | 58 | – | – | 30 | 38 | 23 | 38 | 40 | 30 | 28 | 30 | – | –
4 | COc1c(Cl)ccc(Cl)c1C(=O)NNc1ccc([N+](=O)[O-])cc1 [Compound A-132] | 38 | 33 | – | – | 8 | 15 | 20 | 30 | 18 | 18 | 23 | 8 | – | –
5 | COc1c(Cl)ccc(Cl)c1C(=O)n1nc(C)cc1C [Compound A-133] | 3 | 8 | 3 | 3 | 0 | 20 | 10 | 15 | 8 | 5 | – | – | – | –
6 | COC(=O)C(C(=O)OC)C(=O)c1c(Cl)ccc(Cl)c1OC [Compound A-135] | 23 | 35 | – | – | 3 | 3 | 6 | 10 | 0 | 5 | 10 | 25 | – | –
7 | COc1c(Cl)ccc(Cl)c1C(=O)O/N=C(\N)CC/C(N)=N/OC(=O)c1c(Cl)ccc(Cl)c1OC [Compound A-140] | 94 | 94 | 83 | 83 | 95 | 98 | – | – | 70 | 68 | – | – | 54 | 59
8 | COc1c(Cl)ccc(Cl)c1C(=O)O/N=C(\N)CCCC/C(N)=N/OC(=O)c1c(Cl)ccc(Cl)c1OC [Compound A-145] | 88 | 96 | 83 | 78 | 94 | 91 | – | – | 60 | 64 | – | – | 55 | 65
9 | COc1c(Cl)ccc(Cl)c1C(=O)O/N=C(\N)CCCCCC/C(N)=N/OC(=O)c1c(Cl)ccc(Cl)c1OC [Compound A-147] | 80 | 81 | 50 | 60 | 93 | 88 | – | – | 59 | 49 | – | – | 43 | 38
10 | COc1c(Cl)ccc(Cl)c1C(=O)O [Dicamba, 3,6-dichloro-2-methoxybenzoic acid, reference compound] | 97 | 100 | – | – | 94 | 97 | 78 | 94 | 99 | 90 | 94 | 100 | – | –
